# Results reported in patent US9464084B2, “P2X7 modulators” (Janssen Pharmaceutica NV, priority 2013, dated 2016).
# Target: P2X7 (Homo sapiens (Human), UniProt Q99572)
# Test: P2X7 antagonism in human PBMCs (LPS + Bz-ATP induced IL-1β release, ELISA);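 further: PBMCs from donor human blood, with a further 1.5 h incubation of the cells in the assay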
# Format: cell-based
# Conditions: compound 1 μM, LPS 30 ng/ml, Bz-ATP 0.5 mM
# P2X7, sequence (Q99572 whole entry): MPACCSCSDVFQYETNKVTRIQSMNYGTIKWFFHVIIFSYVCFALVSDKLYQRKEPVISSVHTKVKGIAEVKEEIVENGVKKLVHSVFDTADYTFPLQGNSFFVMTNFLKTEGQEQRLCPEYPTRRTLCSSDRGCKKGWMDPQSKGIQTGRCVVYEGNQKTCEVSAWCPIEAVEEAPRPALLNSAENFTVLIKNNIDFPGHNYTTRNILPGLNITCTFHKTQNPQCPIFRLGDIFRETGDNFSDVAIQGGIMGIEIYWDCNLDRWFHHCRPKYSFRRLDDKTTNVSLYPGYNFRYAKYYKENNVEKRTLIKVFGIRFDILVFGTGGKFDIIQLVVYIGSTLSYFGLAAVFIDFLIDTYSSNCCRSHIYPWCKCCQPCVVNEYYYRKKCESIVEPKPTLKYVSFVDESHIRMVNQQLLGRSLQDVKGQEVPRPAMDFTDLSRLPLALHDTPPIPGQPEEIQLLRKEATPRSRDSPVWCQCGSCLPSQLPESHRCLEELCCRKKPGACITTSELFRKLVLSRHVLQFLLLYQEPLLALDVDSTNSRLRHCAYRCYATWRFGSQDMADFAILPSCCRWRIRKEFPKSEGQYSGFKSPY
row,Structure (SMILES),PBMC 1 μM (% control)
1,"CC1(C)Cc2cccc(C(=O)N3CCc4c(ncn4-c4ccccc4)C3)c2O1 [Example 52, 5-[(2,2-Dimethyl-2,3-dihydro-1-benzofuran-7-yl)carbonyl]-1-phenyl-4,5,6,7-tetrahydro-1H-imidazo[4,5-c]pyridine]",98.9 % control
2,"C[C@H]1c2nnn(-c3cnccn3)c2CCN1C(=O)c1cccc(C(F)(F)F)c1Cl (single isomer, unassigned) [Example 75, (4 S*)-5-{[2-Chloro-3-(trifluoromethyl)phenyl]carbonyl}-4-methyl-1-pyrazin-2-yl-4,5,6,7-tetrahydro-1H-[1,2,3]triazolo[4,5-c]pyridine]",5.2 % control

# Same assay, conditions: compound 10 μM, LPS 30 ng/ml, Bz-ATP 0.5 mM
row,Structure (SMILES),PBMC 10 μM (% control)
1,"C[C@H]1Cc2c(nnn2-c2ccn[nH]2)[C@H](C)N1C(=O)c1cccc(C(F)(F)F)c1Cl [Example 319, (2-chloro-3-(trifluoromethyl)phenyl)((4S,6S)-4,6-dimethyl-1-(1H-pyrazol-5-yl)-6,7-dihydro-1H-[1,2,3]triazolo[4,5-c]pyridin-5(4H)-yl)methanone]",−6.8 % control
2,"C[C@H]1c2ncn(-c3ncc(F)cn3)c2CCN1C(=O)c1cccc(C(F)(F)F)c1Cl (single isomer, unassigned) [Example 194, (S*)-(2-Chloro-3-(trifluoromethyl)phenyl)(1-(5-fluoropyrimidin-2-yl)-4-methyl-6,7-dihydro-1H-imidazo[4,5-c]pyridin-5(4H)-yl)methanone]",−12.8 % control
3,"O=C(c1cccc(C(F)(F)F)c1Cl)N1CCc2c(nnn2-c2ncccn2)C1 [Example 65, 5-{[2-Chloro-3-(trifluoromethyl)phenyl]carbonyl}-1-pyrimidin-2-yl-4,5,6,7-tetrahydro-1H-[1,2,3]triazolo[4,5-c]pyridine]",5.8 % control
4,"COCCn1ccc(-n2nnc3c2CCN(C(=O)c2cccc(C(F)(F)F)c2Cl)[C@H]3C)n1 (single isomer, unassigned) [Example 249, (S*)-(2-Chloro-3-(trifluoromethyl)phenyl)(1-(1-(2-methoxyethyl)-1H-pyrazol-3-yl)-4-methyl-6,7-dihydro-1H-[1,2,3]triazolo[4,5-c]pyridin-5(4H)-yl)methanone]",5.1 % control
5,"COCCn1ccc(-n2nnc3c2CCN(C(=O)c2cccc(C(F)(F)F)c2Cl)[C@@H]3C)n1 (single isomer, unassigned) [Example 248, (R*)-(2-Chloro-3-(trifluoromethyl)phenyl)(1-(1-(2-methoxyethyl)-1H-pyrazol-3-yl)-4-methyl-6,7-dihydro-1H-[1,2,3]triazolo[4,5-c]pyridin-5(4H)-yl)methanone]",74.3 % control
6,"C[C@@H]1Cc2c(nnn2-c2ncc(F)cn2)CN1C(=O)c1ccc(Cl)c(F)c1Cl (single isomer, unassigned) [Example 217, (6R*)-5-[(2,4-Dichloro-3-fluorophenyl)carbonyl]-1-(5-fluoropyrimidin-2-yl)-6-methyl-4,5,6,7-tetrahydro-1H-[1,2,3]triazolo[4,5-c]pyridine]",60.8 % control
7,"Cc1ccnc(-n2nnc3c2CCN(C(=O)c2cccc(C(F)(F)F)c2Cl)[C@H]3C)c1 (single isomer, unassigned) [Example 186, (S*)-(2-chloro-3-(trifluoromethyl)phenyl)(4-methyl-1-(4-methylpyridin-2-yl)-6,7-dihydro-1H-[1,2,3]triazolo[4,5-c]pyridin-5(4H)-yl)methanone]",−0.5 % control
8,"CC1c2nnn(-c3ncccn3)c2CCN1C(=O)c1cccc(C(F)(F)F)c1Cl (stereo not shown) [Example 80, 5-{[2-Chloro-3-(trifluoromethyl)phenyl]carbonyl}-4-methyl-1-pyrimidin-2-yl-4,5,6,7-tetrahydro-1H-[1,2,3]triazolo[4,5-c]pyridine]",4.6 % control
9,"C[C@@H]1Cc2c(nnn2-c2ccn[nH]2)[C@H](C)N1C(=O)c1cccc(C(F)(F)F)c1Cl [Example 309, (2-chloro-3-(trifluoromethyl)phenyl)((4S,6R)-4,6-dimethyl-1-(1H-pyrazol-5-yl)-6,7-dihydro-1H-[1,2,3]triazolo[4,5-c]pyridin-5(4H)-yl)methanone]",1.4 % control
10,"C[C@@H]1Cc2c(nnn2-c2ncc(F)cn2)CN1C(=O)c1ccc(F)c(Cl)c1Cl (single isomer, unassigned) [Example 214, (6R*)-5-[(2,3-Dichloro-4-fluorophenyl)carbonyl]-1-(5-fluoropyrimidin-2-yl)-6-methyl-4,5,6,7-tetrahydro-1H-[1,2,3]triazolo[4,5-c]pyridine]",8.2 % control
11,"CC1c2nnn(-c3ncc(F)cn3)c2CCN1C(=O)c1cccc(C(F)(F)F)c1F (stereo not shown) [Example 175, (2-fluoro-3-(trifluoromethyl)phenyl)(1-(5-fluoropyrimidin-2-yl)-4-methyl-6,7-dihydro-1H-[1,2,3]triazolo[4,5-c]pyridin-5(4H)-yl)methanone]",4.5 % control
12,"C[C@H]1Cc2c(nnn2-c2ncc(F)cn2)CN1C(=O)c1ccnc(C(F)(F)F)c1Cl (single isomer, unassigned) [Example 183, (R*)-(3-chloro-2-(trifluoromethyl)pyridin-4-yl)(1-(5-fluoropyrimidin-2-yl)-6-methyl-6,7-dihydro-1H-[1,2,3]triazolo[4,5-c]pyridin-5(4H)-yl)methanone]",−1.2 % control
13,"Cc1nc(-n2nnc3c2CCN(C(=O)c2cccc(C(F)(F)F)c2Cl)C3C)ncc1F (single isomer, unassigned) [Example 306, (S*)-(2-chloro-3-(trifluoromethyl)phenyl)(1-(5-fluoro-4-methylpyrimidin-2-yl)-4-methyl-6,7-dihydro-1H-[1,2,3]triazolo[4,5-c]pyridin-5(4H)-yl)methanone]",2.5 % control
14,"C[C@@H]1Cc2c(nnn2-c2ccc(F)cc2)[C@H](C)N1C(=O)c1cccc(C(F)(F)F)c1Cl [Example 286, (2-chloro-3-(trifluoromethyl)phenyl)((4S,6R)-1-(4-fluorophenyl)-4,6-dimethyl-6,7-dihydro-1H-[1,2,3]triazolo[4,5-c]pyridin-5(4H)-yl)methanone]",5.8 % control
15,"Cc1cccnc1-n1nnc2c1CCN(C(=O)c1cccc(C(F)(F)F)c1Cl)[C@@H]2C (single isomer, unassigned) [Example 291, (R*)-(2-chloro-3-(trifluoromethyl)phenyl)(4-methyl-1-(3-methylpyridin-2-yl)-6,7-dihydro-1H-[1,2,3]triazolo[4,5-c]pyridin-5(4H)-yl)methanone]",−7.1 % control
16,"CCc1nc2c(n1-c1ccccc1)CCN(C(=O)c1cccc(C(F)(F)F)c1Cl)C2C (stereo not shown) [Example 184, (2-Chloro-3-(trifluoromethyl)phenyl)(2-ethyl-4-methyl-1-phenyl-6,7-dihydro-1H-imidazo[4,5-c]pyridin-5(4H)-yl)methanone]",−0.7 % control
17,"C[C@H]1c2nnn(-c3cnccn3)c2CCN1C(=O)c1cccc(C(F)(F)F)c1Cl (single isomer, unassigned) [Example 75, (4 S*)-5-{[2-Chloro-3-(trifluoromethyl)phenyl]carbonyl}-4-methyl-1-pyrazin-2-yl-4,5,6,7-tetrahydro-1H-[1,2,3]triazolo[4,5-c]pyridine]",−0.3 % control
